Results published in US20240269139A1, “COMPOUNDS FOR TARGETED PROTEIN DEGRADATION OF KINASES” (DANA-FARBER CANCER INSTITUTE, INC., priority 2020, published 2024).
“Also recorded” adds a separate entry of the source. Where two headings read alike, the source gives them in different places.

Key:
[1] = molecular target: protein kinases (human kinome) (Homo sapiens, UniProt Q00537); format: cell-based
[2] = test system: protein kinases (human kinome); format: cell-based; settings: for logFC GSK3B: experiment wp017
[3] = test system: protein kinases in MOLT-4 cells; experiment: Whole cell quantitative proteomics in MOLT-4 cells; settings: MOLT-4, 1 μM, 5 h (FIG. 1J)
Experimental: Whole cell multiplexed quantitative proteomics was employed to measure changes in abundance of the proteome in response to treatment with each of the kinase degrader molecules relative to DMSO (Table 1, Appendix I).
Cells were treated with DMSO (biological triplicate) or degrader at indicated dose and time and cells were harvested by centrifugation. […] Precipitated protein was resuspended in 4 M Urea, 50 mM HEPES pH 7.4, followed by dilution to 1 M urea with the addition of 200 mM EPPS, pH 8. Proteins were first digested with LysC (1:50: enzyme:protein) for 12 hours at room temperature. The LysC digestion was diluted to 0.5 M Urea with 200 mM EPPS pH 8 followed by digestion with trypsin (1:50; enzyme:protein) for 6 hours at 37° C. Tandem mass tag (TMT) reagents (Thermo Fisher Scientific) were dissolved in anhydrous acetonitrile (ACN) according to manufacturer's instructions. […] The 10, 11, or 16-plex labeling reactions were performed for 1.5 hours at room temperature and the reaction quenched by the addition of hydroxylamine to a final concentration of 0.3% for 15 minutes at room temperature. The sample channels were combined at a 1:1 ratio, desalted using C18 solid phase extraction cartridges (Waters®) and analyzed by LC-MS for channel ratio comparison. Samples were then combined using the adjusted volumes determined in the channel ratio analysis and dried down in a speed vacuum. The combined sample was then resuspended in 1% formic acid, and acidified (pH 2-3) before being subjected to desalting with C18 SPE (Sep-Pak®, Waters®). Samples were then offline fractionated into 96 fractions by high pH reverse-phase HPLC (Agilent® LC1260) through an aeris peptide xb-c18 column (Phenomenex®) with mobile phase A containing 5% acetonitrile and 10 mM NH4HCO3 in LC-MS grade H2O, and mobile phase B containing 90% acetonitrile and 10 mM NH4HCO3 in LC-MS grade H2O (both pH 8.0). The 96 resulting fractions were then pooled in a non-continuous manner into 24 fractions and desalted using C18 solid phase extraction plates (SOLA®, Thermo Fisher Scientific) followed by subsequent mass spectrometry analysis.
Data were collected using an Orbitrap Fusion™ Lumos™ mass spectrometer (Thermo Fisher Scientific, San Jose, CA, USA) coupled with a Proxeon EASY-nLC™ 1200 LC pump (Thermo Fisher Scientific) or an Orbitrap Eclipse™ Tribrid™ mass spectrometer (Thermo Fisher Scientific, San Jose, CA, USA) coupled with an UltiMate™ 3000 RSLCnano System. Peptides were separated on an EasySpray™ ES803a/ES803a.rev2 75 μm inner diameter microcapillary column (ThermoFisher Scientific).
Data dependent MS2 spectra were acquired in the ion trap with a normalized collision energy (NCE) set at 35%, AGC target set to 1.8×10^4 and a maximum injection time of 120 ms. MS3 scans were acquired in the Orbitrap with HCD collision energy set to 55%. AGC target set to 2×10^5, maximum injection time of 150 ms, resolution at 50,000 and with a maximum synchronous precursor selection (SPS) precursors set to 10.
Proteome Discoverer™ 2.1, 2.2 or 2.4 (Thermo Fisher Scientific) was used for .RAW file processing and controlling peptide and protein level false discovery rates, assembling proteins from peptides, and protein quantification from peptides.

[4] = molecular target: T1, protein kinases (human kinome) (Homo sapiens, UniProt Q13043); format: cell-based
T1 sequence (Q13043 1-487): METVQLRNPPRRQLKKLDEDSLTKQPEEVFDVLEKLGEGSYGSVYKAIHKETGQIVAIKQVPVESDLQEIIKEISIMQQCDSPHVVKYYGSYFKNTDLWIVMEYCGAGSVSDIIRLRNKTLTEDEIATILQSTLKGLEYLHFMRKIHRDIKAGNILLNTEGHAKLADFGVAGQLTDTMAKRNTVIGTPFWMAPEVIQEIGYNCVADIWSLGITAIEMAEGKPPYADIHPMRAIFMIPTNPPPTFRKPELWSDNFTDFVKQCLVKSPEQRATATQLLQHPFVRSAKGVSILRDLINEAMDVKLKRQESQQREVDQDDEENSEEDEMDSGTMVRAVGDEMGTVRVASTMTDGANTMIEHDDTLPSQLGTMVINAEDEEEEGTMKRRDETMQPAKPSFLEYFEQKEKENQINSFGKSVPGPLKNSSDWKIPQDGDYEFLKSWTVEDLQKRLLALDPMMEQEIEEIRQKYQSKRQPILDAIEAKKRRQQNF

[5] = molecular target: T2, protein kinases (human kinome) (Homo sapiens, UniProt Q8TBX8); format: cell-based; settings: PIP4K2C Q8TBX8-1; experiment wp017
T2 sequence (Q8TBX8 1-421): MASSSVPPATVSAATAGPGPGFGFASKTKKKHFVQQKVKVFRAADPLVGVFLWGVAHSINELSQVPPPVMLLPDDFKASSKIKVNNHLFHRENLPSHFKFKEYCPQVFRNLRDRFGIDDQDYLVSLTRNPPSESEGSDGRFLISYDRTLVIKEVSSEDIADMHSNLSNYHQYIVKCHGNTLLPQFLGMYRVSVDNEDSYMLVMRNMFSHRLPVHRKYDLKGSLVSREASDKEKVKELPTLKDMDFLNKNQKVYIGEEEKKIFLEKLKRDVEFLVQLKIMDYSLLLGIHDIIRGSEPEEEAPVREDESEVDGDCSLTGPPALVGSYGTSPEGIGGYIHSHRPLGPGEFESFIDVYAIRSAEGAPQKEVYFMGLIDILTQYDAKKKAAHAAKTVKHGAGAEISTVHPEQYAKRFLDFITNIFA

[6] = molecular target: T3, protein kinases (human kinome) (Homo sapiens, UniProt O94768); format: cell-based
T3 sequence (O94768 1-372): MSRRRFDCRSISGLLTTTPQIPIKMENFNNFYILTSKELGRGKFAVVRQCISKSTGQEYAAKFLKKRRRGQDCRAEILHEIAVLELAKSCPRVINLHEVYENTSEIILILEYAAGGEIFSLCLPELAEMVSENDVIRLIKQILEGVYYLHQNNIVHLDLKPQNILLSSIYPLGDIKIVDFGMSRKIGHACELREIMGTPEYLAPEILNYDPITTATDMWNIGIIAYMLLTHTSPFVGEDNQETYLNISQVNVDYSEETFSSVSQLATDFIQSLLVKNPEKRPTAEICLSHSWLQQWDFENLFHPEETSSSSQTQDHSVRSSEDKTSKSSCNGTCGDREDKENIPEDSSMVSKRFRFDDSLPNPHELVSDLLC

[7] = molecular target: protein kinases (human kinome) (Homo sapiens, UniProt Q9P1W9); format: cell-based
protein kinases (human kinome) (Homo sapiens, UniProt Q9P1W9), sequence (Q9P1W9 whole entry): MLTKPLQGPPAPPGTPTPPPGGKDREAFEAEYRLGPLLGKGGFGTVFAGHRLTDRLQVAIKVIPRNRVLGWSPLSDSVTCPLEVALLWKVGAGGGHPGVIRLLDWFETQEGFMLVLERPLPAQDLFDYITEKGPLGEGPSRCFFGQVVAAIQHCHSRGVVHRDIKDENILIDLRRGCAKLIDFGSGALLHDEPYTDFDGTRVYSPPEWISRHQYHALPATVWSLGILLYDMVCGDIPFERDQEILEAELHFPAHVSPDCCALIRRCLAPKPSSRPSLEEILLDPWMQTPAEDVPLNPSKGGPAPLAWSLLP

[8] = molecular target: protein kinases (human kinome) (Homo sapiens, UniProt P48730); format: cell-based
protein kinases (human kinome) (Homo sapiens, UniProt P48730), sequence (P48730 whole entry): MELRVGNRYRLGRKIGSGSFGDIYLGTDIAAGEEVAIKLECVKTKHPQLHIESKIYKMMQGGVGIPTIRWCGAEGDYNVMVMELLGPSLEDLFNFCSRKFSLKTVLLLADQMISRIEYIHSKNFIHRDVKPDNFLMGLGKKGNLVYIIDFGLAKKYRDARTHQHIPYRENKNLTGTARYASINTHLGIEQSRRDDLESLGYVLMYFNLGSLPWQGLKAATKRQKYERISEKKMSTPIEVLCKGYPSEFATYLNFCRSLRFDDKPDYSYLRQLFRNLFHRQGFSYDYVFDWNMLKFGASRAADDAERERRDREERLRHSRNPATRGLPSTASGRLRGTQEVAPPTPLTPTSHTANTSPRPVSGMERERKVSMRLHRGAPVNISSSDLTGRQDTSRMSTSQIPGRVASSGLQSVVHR

[9] = molecular target: T4, protein kinases (human kinome) (Homo sapiens, UniProt O60285); format: cell-based; settings: NUAK1 (O60285), experiment wp017
T4 sequence (O60285 1-661): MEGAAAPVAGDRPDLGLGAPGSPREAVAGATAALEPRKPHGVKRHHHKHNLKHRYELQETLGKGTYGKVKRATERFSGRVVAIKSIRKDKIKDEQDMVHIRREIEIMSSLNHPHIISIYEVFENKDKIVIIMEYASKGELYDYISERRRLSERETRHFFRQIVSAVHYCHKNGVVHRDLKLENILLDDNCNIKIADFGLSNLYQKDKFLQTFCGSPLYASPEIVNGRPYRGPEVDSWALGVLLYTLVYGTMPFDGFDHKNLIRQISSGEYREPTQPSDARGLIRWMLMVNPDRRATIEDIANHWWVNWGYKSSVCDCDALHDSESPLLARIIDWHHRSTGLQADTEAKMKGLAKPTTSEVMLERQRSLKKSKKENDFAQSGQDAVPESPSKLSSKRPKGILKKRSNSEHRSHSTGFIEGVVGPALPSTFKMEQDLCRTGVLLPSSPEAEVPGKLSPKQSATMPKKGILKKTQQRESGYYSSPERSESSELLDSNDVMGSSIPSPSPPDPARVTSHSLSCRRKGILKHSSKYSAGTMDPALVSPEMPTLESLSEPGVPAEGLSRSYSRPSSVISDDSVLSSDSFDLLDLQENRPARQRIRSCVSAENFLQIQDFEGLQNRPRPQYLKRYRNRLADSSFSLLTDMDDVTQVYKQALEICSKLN

[10] = molecular target: protein kinases (human kinome) (Homo sapiens, UniProt P49840); format: cell-based; settings: GSK3A P49840; experiment wp017
protein kinases (human kinome) (Homo sapiens, UniProt P49840), sequence (P49840 whole entry): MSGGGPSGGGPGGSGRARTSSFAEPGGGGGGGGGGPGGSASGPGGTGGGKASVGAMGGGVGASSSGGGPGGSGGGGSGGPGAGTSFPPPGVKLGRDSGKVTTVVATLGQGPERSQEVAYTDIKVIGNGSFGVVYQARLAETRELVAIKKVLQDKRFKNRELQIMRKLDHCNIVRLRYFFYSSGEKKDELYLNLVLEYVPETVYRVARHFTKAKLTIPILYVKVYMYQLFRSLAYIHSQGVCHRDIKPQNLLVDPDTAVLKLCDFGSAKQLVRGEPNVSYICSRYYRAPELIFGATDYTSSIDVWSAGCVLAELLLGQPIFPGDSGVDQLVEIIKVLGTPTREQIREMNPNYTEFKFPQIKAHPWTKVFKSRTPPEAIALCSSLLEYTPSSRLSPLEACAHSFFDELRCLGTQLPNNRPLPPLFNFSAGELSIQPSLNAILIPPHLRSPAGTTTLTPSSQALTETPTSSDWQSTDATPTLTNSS

[11] = molecular target: protein kinases (human kinome) (Homo sapiens, UniProt O94921); format: cell-based
protein kinases (human kinome) (Homo sapiens, UniProt O94921), sequence (O94921 whole entry): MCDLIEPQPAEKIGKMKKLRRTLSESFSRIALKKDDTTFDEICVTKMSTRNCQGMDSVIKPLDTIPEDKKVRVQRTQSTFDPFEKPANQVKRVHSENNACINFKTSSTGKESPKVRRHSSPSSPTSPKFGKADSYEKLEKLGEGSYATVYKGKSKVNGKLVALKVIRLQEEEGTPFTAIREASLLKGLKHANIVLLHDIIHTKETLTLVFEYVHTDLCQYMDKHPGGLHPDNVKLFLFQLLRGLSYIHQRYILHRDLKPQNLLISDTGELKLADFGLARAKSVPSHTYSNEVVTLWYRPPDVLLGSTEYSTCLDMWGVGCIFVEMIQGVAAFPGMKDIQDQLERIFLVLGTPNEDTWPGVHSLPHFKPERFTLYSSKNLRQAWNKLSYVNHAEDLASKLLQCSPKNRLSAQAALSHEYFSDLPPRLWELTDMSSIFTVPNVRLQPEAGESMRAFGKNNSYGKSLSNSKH

protein kinases (human kinome) (Homo sapiens, UniProt Q00537), sequence (Q00537 whole entry): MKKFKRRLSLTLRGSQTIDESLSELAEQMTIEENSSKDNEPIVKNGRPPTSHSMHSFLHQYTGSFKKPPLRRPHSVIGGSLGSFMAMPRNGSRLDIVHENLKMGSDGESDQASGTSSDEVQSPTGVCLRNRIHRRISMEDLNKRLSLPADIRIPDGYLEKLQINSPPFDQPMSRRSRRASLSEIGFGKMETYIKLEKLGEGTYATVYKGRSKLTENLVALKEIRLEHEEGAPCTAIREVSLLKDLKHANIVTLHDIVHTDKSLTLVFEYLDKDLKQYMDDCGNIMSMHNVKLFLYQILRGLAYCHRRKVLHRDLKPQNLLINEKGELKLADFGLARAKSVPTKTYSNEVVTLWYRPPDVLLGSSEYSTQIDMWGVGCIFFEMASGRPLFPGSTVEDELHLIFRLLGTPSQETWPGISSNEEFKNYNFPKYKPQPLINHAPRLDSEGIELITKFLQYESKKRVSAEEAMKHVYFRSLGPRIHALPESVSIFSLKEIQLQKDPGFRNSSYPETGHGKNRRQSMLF

## Cc1ncsc1-c1ccc([C@H](C)NC(=O)[C@@H]2C[C@@H](O)CN2C(=O)[C@@H](NC(=O)CCOCCOCCNc2nccc(-c3sc(C(C)(C)C)nc3-c3cccc(NS(=O)(=O)c4c(F)cccc4F)c3F)n2)C(C)(C)C)cc1 [DD-03-156, (2S,4R)-1-((S)-2-(3-(2-(2-((4-(2-(tert-butyl)-4-(3-((2,6-difluorophenyl)sulfonamido)-2-fluorophenyl)thiazol-5-yl)pyrimidin-2-yl)amino)ethoxy)ethoxy)propanamido)-3,3-dimethylbutanoyl)-4-hydroxy-N—((S)-1-(4-(4-methylthiazol-5-yl)phenyl)ethyl)pyrrolidine-2-2377 carboxamide]
[1]
  preference for degrading CDK17: strong preference for degrading CDK17
[2]; as stated for the structure in the embodiments
  kinases the bifunctional compound degrades: CDK17, LIMK1, and LIMK2
[2]; kinases significantly downregulated vs DMSO (fold change cutoff −1.25, P-value<0.01), ≤8 h, 0.1-5 μM degrader, 7 cell lines
  Kinase hits: CDK17, LIMK1, LIMK2
[2]; number of degraded kinases per library compound
  Total no. kinase hits: 3
[3]
  degradation profile (potency and selectivity): potent and selective degradation of only CDK17 and LIMK2; also recorded: exquisite

## Nc1ncc(-c2ccc(S(=O)(=O)N(CCCNC(=O)CCOCCOCCOCCOCCOCCNc3cccc4c3C(=O)N(C3CCC(=O)NC3=O)C4=O)C3CC3)cc2F)cc1-c1ccc2c(c1)CCNC2=O (stereo not shown) [WH.9533.153]
[4]; Experiment wp017
  logFC of STK4 (Q13043-1): −0.4936
[4]; STK4 (Q13043-1), experiment wp017
  logFC: −0.4936
[5]
  logFC: −0.7144
[6]; Experiment wp017, direction down
  logFC STK17B (O94768): −0.7595
[6]; STK17B (O94768), experiment wp017
  logFC: −0.7595
[2]; Accession P49841-2, direction down
  logFC GSK3B: −1.317
[2]; GSK3B P49841-2
  logFC GSK3B: −1.317
[7]; Experiment wp017
  logFC of PIM2 (Q9P1W9): −0.4936
[7]; PIM2 (Q9P1W9), experiment wp017
  logFC: −0.4936
[8]; Accession P48730-1, experiment wp017, direction down
  logFC CSNK1D: −0.7788
[8]; Experiment wp017
  logFC of CSNK1D (P48730-1): −0.7788
[9]
  logFC: −1.367
[9]; direction down
  logFC: −1.367
[10]
  logFC: −0.4833
  logFC GSK3A: −0.4833
[11]; CDK14 (O94921-1), experiment wp017
  logFC: −0.4637
[11]; Experiment wp017
  logFC of CDK14 (O94921-1): −0.4637
